Measured values published in US20250222045A1, “BIFIDOBACTERIUM LONGUM SUBSP. INFANTIS, MICROBIAL AGENT AND USE THEREOF” (GUANGZHOU JIYAN COSMETICS TECHNOLOGY CO., LTD., priority 2024, published 2025).

Tests used:
MMP-1 = assay: UVA-irradiated fibroblasts, special dosing (UVA continuous irradiation): MMP1 ELISA; type: cell-based; settings: Filtrate 1%, Lysate 0.5%, Filtrate + lysate 0.3125%, Pro-xylane 10 mg/mL, Edelweiss 0.625%
Experimental: (§1) Cell inoculation: After resuscitation of cells, when a plating rate reached about 60%, the cells were inoculated in 6-well plates, and incubated overnight in the CO2 incubator (37° C., 5% CO2).
Dosing: When the plating rate of the cells in the 6-well plates reached about 50%˜60%, UVA irradiation of 30 J/cm^2 was performed on groups with UVA irradiation, and after the irradiation was finished, dosing was performed for the groups respectively, with each group in triplicate. The blank control group and the negative control group were added with 2 mL of the culture solution per well, the positive control group was added with 2 mL of the TGF-β1-containing culture solution per well, and the sample group was added with 2 mL of the test sample-containing culture solution at a corresponding concentration per well. After the dosing was completed, the 6-well plates were cultured in the CO2 incubator (37° C., 5% CO2) […] for 24 h. The above operations were repeated for 3 times. […]
(§2) Statistical analysis of results: GraphPad Prism Program software was applied for plotting, and results were expressed as Mean±SD. Comparison between the groups was statistically analyzed using t-test. […]

NF-κB gene = assay: UVA-irradiated fibroblasts, special dosing: NF-κB PCR; type: cell-based; settings: Filtrate 0.1%, Lysate 0.5%, Filtrate + lysate 0.3125%, Pro-xylane 10 mg/mL
Experimental: as §1
(§3) Dosing: When the plating rate of the cells in the 6-well plates reached about 50%˜60%, UVA irradiation of 30 J/cm^2 was performed on groups with UVA irradiation, and after the irradiation was finished, dosing was performed for the groups respectively, with each group in triplicate. […]
(§4) Detection of gene expression: After the incubation was finished, PBS cleaning was performed twice with 1 mL/well, each well was added with 1 mL of RNAiso Plus, to pipet and lyse the cells, after which samples were collected. RNA was extracted and subjected to reverse transcription to cDNA to undergo fluorescence quantitative PCR detection, and result was calculated by the […] method.
as §2

p21 gene = assay: UVA-irradiated fibroblasts, special dosing: p21 PCR; type: cell-based; settings: 10 mg/mL
Experimental: as §1, §3, §4, §2

p16 gene = assay: UVA-irradiated fibroblasts, special dosing: p16 PCR; type: cell-based; settings: 10 mg/mL
Experimental: as §1, §3, §4, §2

PGE2 = assay: Keratinocyte-based inflammatory factor test (UVB), PGE2 ELISA; type: cell-based; settings: keratinocytes, dosed 24 h, UVB 300 mJ/cm^2, 24 h, BC 165.31, NC 492.42, dexamethasone 0.01%, Filtrate 0.3125%, Lysate 1%, Filtrate + lysate 0.0781%, Centella asiatica 0.625 mg/mL
Experimental: (§5) Cell inoculation: After resuscitation of cells, when a plating rate reached about 60%, the cells were inoculated in 6-well plates, and incubated overnight in a CO2 incubator (37° C., 5% CO2).
(§6) Dosing: According to test groups in TABLE 19, when the plating rate of the cells in the 6-well plates reached about 30%˜50%, dosing was performed for the groups respectively, with each group in triplicate. The blank control group and the negative control group were added with 2 mL of a culture solution per well, the positive control group was added with 2 mL of a dexamethasone-containing culture solution per well, and the sample group was added with 2 mL of a test sample-containing culture solution at corresponding concentration per well. After the dosing was completed, the 6-well plates were cultured in the CO2 incubator (37° C., 5% CO2) for 24 h.
UVB irradiation: after the cells are cleaned in PBS, according to the test groups, remaining groups other than the blank control group were all subjected to UVB irradiation, with an irradiation dosage of 300 mJ/cm^2. […]
(§7) Statistical analysis of results: GraphPad Prism was applied for plotting, and results were expressed as Mean±SD. Comparison between the groups was statistically analyzed using t-test. […]

IL-6 = assay: Macrophage-based inflammatory factor test (LPS), IL-6 ELISA; type: cell-based; settings: macrophages, dosed 2 h, then LPS 22 h, BC 0.50, NC 2224.08, dexamethasone 0.01%, Filtrate 0.5%, CLR bifida ferment lysate 1%
Experimental: (§8) <1> Formulation of working solution of positive control group (dexamethason): 2 μL of 10% mother liquor was sucked and dissolved in 2 mL of the culture solution to formulate 0.01% dexamethasone.
(§9) <2> Formulation of 1 μg/mL LPS-containing working solution: 2 mg/mL LPS stock solution was diluted to 1 μg/mL with the test-substance working solution remaining, negative control working solution and positive control working solution, respectively, after the dosing.
(§10) <1> Cell inoculation: the cells were inoculated in 6-well plates at an inoculation density of 2.2×10^5 per well, 2 mL of a cell suspension was added to each well, the inoculated cell culture plates continued to be cultured in the incubator for 24 h (5% CO2, 37° C.).
(§11) <2> Original cell culture solution in the wells was sucked out and discarded. The sample group was added with 1.8 mL of the test substance-containing culture solution at a corresponding concentration per well; the negative control group was added with 1.8 mL of a solvent control culture solution per well; the positive control group was added with 1.8 mL of a positive control culture solution per well; and the blank control group was added with 1.8 mL of a normal culture solution per well.
(§12) <3> After the dosing was completed, the 6-well plates were cultured in a cell incubator (5% CO2, 37° C.) for 2 h. […]

IL-1β = assay: Macrophage-based inflammatory factor test (LPS), IL-1β ELISA; type: cell-based; settings: macrophages, dosed 2 h, then LPS 22 h, BC 2.83, NC 76.40, dexamethasone 0.01%, Filtrate 0.5%, CLR bifida ferment lysate 1%
Experimental: as §8, §9, §10, §11, §12

Keratinocyte = assay: Cell scratch test, keratinocyte cell mobility; type: cell-based; settings: Filtrate 0.3125%, Lysate 0.5%, Filtrate + lysate 0.0781%, Madecassoside 0.625 mg/mL, B5 1.25 mg/mL
From the text: Cell migration capability is an important capability of repairing after tissue damage. After the tissue damage, the body will initiate repair of a damaged part, including enhancement of longitudinal cell proliferation capability and lateral crawling and migration of cells in surrounding parts of the damage to the damaged part. Cells cover the damaged part by crawling and migration.
as §5
as §6, with “9,” for “19,”, “70%˜80%,” for “30%˜50%,”, “was” for “and the negative control group were”, “an EGF-containing” for “a dexamethasone-containing”, “continued to be” for “were”, “h. […]” for “h.”
Statistical analysis of results: GraphPad Prism was applied for plotting, and results were expressed as Mean±sD. Comparison between the groups was statistically analyzed using t-test. […]

Claudin-1 gene = assay: Keratinocyte gene expression PCR: Claudin-1; type: cell-based, human; settings: keratinocytes (HaCaT), 24 h, 2^−ΔΔCT, BC=1.00; PC VE 0.05%, Filtrate 0.3125%, Lysate 0.5%, Filtrate + lysate 0.0781%, Madecassoside 0.625 mg/mL, CLR lactic acid bacteria 0.5%
Experimental: Cell inoculation: After resuscitation of the cells, when the plating rate reached about 60%, the cells were inoculated in the 6-well plates, and incubated overnight in the CO2 incubator (37° C., 5% CO2).
Dosing: According to test groups in TABLE 11 to TABLE 17, when the plating rate of the cells in the 6-well plates reached about 40%˜60%, dosing was performed for the groups respectively, with each group in triplicate. The blank control group was added with 2 mL of the culture solution per well, the positive control group was added with 2 mL of a VE-containing culture solution per well, and the sample group was added with 2 mL of the test sample-containing culture solution at a corresponding concentration per well. After the dosing was completed, the 6-well plates were cultured in the CO2 incubator (37° C., 5% CO2) for 24 h. […]
Detection of gene expression: RNA was extracted and subjected to reverse transcription to cDNA to undergo fluorescence quantitative PCR detection, and result was calculated by a 2^−ΔΔCT method.
as §7

[1] = test system: 3D epidermal skin model (EpiKutis®); assay: SLS-stimulated 3D epidermal skin model (EpiKutis), tissue morphology H&E; type: cell-based; settings: 0.1% SLS 30 min, then 24 h, filtrate 5%, lysate 5%, combination 5%, madecassoside 0.625 mg/mL, PC WY14643, FIG. 19
From the text: Tissue morphology: Tissue morphology is microscopic physiological structure analysis of tissues after HE staining. Through the tissue morphology of the model, changes in the skin barrier under different treatment conditions can be seen, for example, after SLS damage, the skin barrier becomes loose, thickness of a living cell layer decreases, and such damage can be ameliorated after treatment with active substances.
1) Formulation of 0.1% SLS working solution: 0.006 g of SLS was weighed and dissolved in 6 mL of a PBS solution, filtered by 0.22 μm, and formulated into the 0.1% SLS working solution for later use.
2) Formulation of working solution of positive control group (50 μM WY14643): 10 μL of 30 mM WY14643 mother liquor was sucked and dissolved in 6 mL of the culture solution to be formulated into 50 μM WY14643. […]
The models for detection of tissue morphology were fixed using 4% paraformaldehyde. After 24 h of fixation, H&E staining detection was performed, photographs were taken under a microscope and observed, and pictures were collected and analyzed.
as §7

Molecule: CC(O)C[C@@H]1OC[C@@H](O)[C@H](O)[C@H]1O (some centres unmarked) [Pro-xylane]
- MMP1 Down-regulation Rate (vs NC) (MMP-1): 17.94%
- MMP1 Mean Concentration (MMP-1; fibroblasts, UVA 30 J/cm^2 then dosing 24 h, repeated 3 times, ELISA, BC 359379.29, NC 1075513.35, PC TGFβ1 100 ng/mL): 882584.62 pg/mL
- NF-κB gene expression, Inhibition Rate (vs NC) (NF-κB gene): 65.13%
- NF-κB gene expression, Mean (NF-κB gene; fibroblasts, UVA 30 J/cm^2 then dosing 24 h, repeated 3 times, BC 1.00, NC 1.52, PC TGFβ1 100 ng/mL): 0.53
- p21 gene expression, Mean (p21 gene): 1.88
- p16 Down-regulation Rate (vs NC) (p16 gene): 35.37%
- p16 gene expression, Mean (p16 gene): 1.06

Molecule: C[C@@H]1C[C@H]2[C@@H]3CCC4=CC(=O)C=C[C@]4(C)[C@@]3(F)[C@@H](O)C[C@]2(C)[C@@]1(O)C(=O)CO [dexamethasone]
- PGE2 Mean Concentration (PGE2): 159.23 pg/mL
- IL-6 Mean Concentration (IL-6): 193.04 pg/mL
- IL-1β Mean Concentration (IL-1β): 8.51 pg/mL

Molecule: Madecassoside
- Relative Mobility Mean (Keratinocyte; keratinocytes, dosed 24 h, 24 h after scratching, BC=1.00, PC EGF 1 ng/mL): 1.02
- Relative mobility, Increase Rate (Keratinocyte; vs BC): 2.00%
- Claudin-1 gene expression, Mean (Claudin-1 gene): 0.96
- Tissue morphology (H&E) compared with the NC group [1]: the phenomenon of living cell damage is obviously ameliorated
